Assay results as given in ChEMBL document CHEMBL1139449, “Synthesis and inhibitory activity against COX-2 catalyzed prostaglandin production of chrysin derivatives” (Bioorg Med Chem Lett, 2004).

What follows are molecules tested on RAW264.7 (assay: Evaluated for inhibition of COX-2 catalyzed PGE-2 production from LPS induced RAW 264.7 cells). Conditions: Mus musculus.
Assay type: functional, cell-based

IC50 | SMILES
1080 nM | COc1c(O)cc(O)c2c(=O)cc(-c3ccccc3)oc12 [WOGONIN]
500 nM | CS(=O)(=O)Nc1ccc([N+](=O)[O-])cc1OC1CCCCC1 [NS-398]

More lines, now with the values behind:

SMILES | IC50
O=c1cc(-c2ccccc2)oc2ccccc12 [FLAVONE] | 500 nM
COc1ccc2c(=O)cc(-c3ccc(Cl)cc3)oc2c1 | 500 nM

These molecules were tested on RAW264.7 (assay: Evaluated for inhibition of COX-2 catalyzed PGE-2 production from LPS induced RAW 264.7 cells; Range: 0.1-0.5 uM). Conditions: Mus musculus.
Assay type: functional, cell-based

IC50 | SMILES
< 500 nM | COc1cccc2oc(-c3ccc(Cl)c(Cl)c3)cc(=O)c12
< 500 nM | COc1ccc2c(=O)cc(-c3ccc(Cl)c(Cl)c3)oc2c1
< 500 nM | O=c1cc(-c2ccc(Cl)c(Cl)c2)oc2cc(O)ccc12
